Source: ChEMBL document CHEMBL1743141, “Membrane transporters in drug development” (Nat Rev Drug Discov, 2010)

Columns and labels:
Format in all cases: ADME
[1] = target: T1, Solute carrier family 22 member 2 (Homo sapiens, UniProt O15244); test: Inhibitors of transporters of clinical importance in the absorption and disposition of drugs, OCT2
T1 sequence (O15244 whole entry): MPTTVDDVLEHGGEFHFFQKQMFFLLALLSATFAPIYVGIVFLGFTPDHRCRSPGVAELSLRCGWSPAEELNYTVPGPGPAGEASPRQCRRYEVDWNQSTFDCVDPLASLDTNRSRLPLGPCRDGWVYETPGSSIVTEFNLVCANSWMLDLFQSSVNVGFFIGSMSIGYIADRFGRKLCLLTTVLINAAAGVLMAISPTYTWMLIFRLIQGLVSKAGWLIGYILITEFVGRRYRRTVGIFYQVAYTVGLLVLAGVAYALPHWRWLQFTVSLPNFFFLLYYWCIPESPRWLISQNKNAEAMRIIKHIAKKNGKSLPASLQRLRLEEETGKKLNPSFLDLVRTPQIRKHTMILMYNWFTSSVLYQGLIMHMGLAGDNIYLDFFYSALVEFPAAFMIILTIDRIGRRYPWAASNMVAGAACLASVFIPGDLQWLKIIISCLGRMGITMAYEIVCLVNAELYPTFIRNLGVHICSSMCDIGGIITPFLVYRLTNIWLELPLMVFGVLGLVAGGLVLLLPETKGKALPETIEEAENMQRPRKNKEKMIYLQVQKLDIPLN

[2] = target: T2, Solute carrier organic anion transporter family member 1B1 (Homo sapiens, UniProt Q9Y6L6); test: Substrates of transporters of clinical importance in the absorption and disposition of drugs, OATP1B1
T2 sequence (Q9Y6L6 whole entry): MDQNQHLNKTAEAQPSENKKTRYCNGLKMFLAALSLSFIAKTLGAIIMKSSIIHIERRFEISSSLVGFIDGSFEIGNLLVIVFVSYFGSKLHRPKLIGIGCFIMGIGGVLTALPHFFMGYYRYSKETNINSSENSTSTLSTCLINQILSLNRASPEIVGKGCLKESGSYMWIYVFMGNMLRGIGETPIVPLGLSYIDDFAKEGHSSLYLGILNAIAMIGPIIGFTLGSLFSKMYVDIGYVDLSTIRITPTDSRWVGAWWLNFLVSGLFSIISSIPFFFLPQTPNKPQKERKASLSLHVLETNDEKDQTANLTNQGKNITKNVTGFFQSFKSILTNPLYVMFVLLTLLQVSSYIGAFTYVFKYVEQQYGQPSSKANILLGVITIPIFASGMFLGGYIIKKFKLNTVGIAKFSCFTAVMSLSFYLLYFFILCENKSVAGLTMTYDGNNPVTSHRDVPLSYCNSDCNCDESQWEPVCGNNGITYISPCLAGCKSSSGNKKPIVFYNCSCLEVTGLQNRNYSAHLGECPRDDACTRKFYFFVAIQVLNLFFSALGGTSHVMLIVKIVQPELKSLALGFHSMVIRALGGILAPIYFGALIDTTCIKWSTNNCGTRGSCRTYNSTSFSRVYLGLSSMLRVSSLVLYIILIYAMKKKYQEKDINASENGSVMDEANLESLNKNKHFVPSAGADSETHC

[3] = target: T3, Organic anion transporter 3 (Homo sapiens, UniProt Q8TCC7); test: Substrates of transporters of clinical importance in the absorption and disposition of drugs, OAT3
T3 sequence (Q8TCC7 whole entry): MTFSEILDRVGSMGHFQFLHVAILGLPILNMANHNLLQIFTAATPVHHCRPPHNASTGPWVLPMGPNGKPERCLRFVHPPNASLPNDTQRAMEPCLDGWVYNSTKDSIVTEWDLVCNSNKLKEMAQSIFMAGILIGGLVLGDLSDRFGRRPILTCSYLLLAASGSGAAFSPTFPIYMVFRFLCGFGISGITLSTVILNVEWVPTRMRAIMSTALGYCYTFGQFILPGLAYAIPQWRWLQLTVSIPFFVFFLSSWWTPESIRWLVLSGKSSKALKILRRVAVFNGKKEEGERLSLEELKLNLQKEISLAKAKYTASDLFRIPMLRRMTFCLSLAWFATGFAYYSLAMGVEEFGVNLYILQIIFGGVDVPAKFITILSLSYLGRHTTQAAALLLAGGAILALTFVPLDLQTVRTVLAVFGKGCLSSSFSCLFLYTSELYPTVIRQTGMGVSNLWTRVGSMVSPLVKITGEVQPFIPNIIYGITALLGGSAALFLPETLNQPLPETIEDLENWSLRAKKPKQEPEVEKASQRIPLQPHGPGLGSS

[4] = target: T4, Solute carrier organic anion transporter family member 1A2 (Homo sapiens, UniProt P46721); test: Substrates of transporters of clinical importance in the absorption and disposition of drugs, OATP1A2
T4 sequence (P46721 whole entry): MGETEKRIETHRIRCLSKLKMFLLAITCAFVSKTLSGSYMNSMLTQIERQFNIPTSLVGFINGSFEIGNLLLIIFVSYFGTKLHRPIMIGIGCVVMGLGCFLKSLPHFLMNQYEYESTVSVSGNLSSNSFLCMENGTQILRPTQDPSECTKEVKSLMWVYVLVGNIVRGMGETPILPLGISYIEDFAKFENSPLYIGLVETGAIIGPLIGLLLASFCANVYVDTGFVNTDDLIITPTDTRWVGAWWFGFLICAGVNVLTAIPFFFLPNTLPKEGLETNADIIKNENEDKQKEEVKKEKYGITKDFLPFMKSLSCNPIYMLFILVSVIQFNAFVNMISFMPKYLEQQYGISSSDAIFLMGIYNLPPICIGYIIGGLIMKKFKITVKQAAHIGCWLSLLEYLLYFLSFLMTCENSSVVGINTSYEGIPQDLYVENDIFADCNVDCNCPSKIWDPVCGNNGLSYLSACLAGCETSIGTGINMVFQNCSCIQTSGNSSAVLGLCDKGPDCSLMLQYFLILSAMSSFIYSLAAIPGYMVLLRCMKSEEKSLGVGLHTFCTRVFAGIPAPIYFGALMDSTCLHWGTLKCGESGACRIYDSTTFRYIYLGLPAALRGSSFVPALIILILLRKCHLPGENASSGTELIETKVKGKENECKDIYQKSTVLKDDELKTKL

[5] = target: T5, Solute carrier organic anion transporter family member 2B1 (Homo sapiens, UniProt O94956); test: Substrates of transporters of clinical importance in the absorption and disposition of drugs, OATP2B1
T5 sequence (O94956 whole entry): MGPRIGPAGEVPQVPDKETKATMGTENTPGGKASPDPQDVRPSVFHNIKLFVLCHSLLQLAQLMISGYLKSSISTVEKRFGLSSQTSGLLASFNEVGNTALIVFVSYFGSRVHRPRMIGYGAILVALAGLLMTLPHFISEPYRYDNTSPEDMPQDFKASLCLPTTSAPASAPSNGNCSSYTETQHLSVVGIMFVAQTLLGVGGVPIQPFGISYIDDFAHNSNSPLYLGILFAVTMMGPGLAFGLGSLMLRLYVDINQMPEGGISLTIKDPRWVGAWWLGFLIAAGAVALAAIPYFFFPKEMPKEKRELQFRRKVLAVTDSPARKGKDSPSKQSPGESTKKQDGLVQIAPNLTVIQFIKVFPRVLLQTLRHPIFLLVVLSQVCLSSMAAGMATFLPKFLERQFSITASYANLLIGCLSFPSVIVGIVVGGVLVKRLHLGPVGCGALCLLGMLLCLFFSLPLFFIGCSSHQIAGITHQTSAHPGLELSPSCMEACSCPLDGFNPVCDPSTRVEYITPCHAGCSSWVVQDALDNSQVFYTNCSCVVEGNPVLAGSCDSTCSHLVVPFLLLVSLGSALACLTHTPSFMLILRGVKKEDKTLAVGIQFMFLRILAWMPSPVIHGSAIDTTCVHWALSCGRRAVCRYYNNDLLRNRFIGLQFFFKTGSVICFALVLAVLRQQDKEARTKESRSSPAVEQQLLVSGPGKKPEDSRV

[6] = target: ATP-dependent translocase ABCB1 (Homo sapiens, UniProt P08183); test: Substrates of transporters of clinical importance in the absorption and disposition of drugs, MDR1
[7] = target: Phosphatidylcholine translocator ABCB4 (Homo sapiens, UniProt P21439); test: Substrates of transporters of clinical importance in the absorption and disposition of drugs, MDR3
[8] = target: T6, Solute carrier organic anion transporter family member 1B3 (Homo sapiens, UniProt Q9NPD5); test: Substrates of transporters of clinical importance in the absorption and disposition of drugs, OATP1B3
T6 sequence (Q9NPD5 whole entry): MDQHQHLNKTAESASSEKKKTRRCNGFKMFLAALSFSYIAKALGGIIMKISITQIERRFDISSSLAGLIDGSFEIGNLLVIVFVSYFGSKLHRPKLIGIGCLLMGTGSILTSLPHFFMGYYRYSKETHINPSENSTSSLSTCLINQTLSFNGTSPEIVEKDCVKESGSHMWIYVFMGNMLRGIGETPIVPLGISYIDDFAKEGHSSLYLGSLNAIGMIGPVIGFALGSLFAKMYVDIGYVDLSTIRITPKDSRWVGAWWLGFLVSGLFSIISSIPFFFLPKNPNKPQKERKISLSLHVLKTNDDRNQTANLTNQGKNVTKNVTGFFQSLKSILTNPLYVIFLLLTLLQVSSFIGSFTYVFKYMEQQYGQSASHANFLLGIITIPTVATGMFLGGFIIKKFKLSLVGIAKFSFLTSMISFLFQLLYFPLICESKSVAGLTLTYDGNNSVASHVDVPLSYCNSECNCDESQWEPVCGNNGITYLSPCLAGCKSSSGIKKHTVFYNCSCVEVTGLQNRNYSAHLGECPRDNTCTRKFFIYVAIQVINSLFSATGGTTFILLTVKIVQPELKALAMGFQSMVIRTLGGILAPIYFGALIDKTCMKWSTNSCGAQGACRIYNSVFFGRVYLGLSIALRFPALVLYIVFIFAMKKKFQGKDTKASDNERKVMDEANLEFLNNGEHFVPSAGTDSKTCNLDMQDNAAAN

[9] = target: T1, Solute carrier family 22 member 2; test: Substrates of transporters of clinical importance in the absorption and disposition of drugs, OCT2
[10] = target: T7, Solute carrier family 22 member 1 (Homo sapiens, UniProt O15245); test: Substrates of transporters of clinical importance in the absorption and disposition of drugs, OCT1
T7 sequence (O15245 whole entry): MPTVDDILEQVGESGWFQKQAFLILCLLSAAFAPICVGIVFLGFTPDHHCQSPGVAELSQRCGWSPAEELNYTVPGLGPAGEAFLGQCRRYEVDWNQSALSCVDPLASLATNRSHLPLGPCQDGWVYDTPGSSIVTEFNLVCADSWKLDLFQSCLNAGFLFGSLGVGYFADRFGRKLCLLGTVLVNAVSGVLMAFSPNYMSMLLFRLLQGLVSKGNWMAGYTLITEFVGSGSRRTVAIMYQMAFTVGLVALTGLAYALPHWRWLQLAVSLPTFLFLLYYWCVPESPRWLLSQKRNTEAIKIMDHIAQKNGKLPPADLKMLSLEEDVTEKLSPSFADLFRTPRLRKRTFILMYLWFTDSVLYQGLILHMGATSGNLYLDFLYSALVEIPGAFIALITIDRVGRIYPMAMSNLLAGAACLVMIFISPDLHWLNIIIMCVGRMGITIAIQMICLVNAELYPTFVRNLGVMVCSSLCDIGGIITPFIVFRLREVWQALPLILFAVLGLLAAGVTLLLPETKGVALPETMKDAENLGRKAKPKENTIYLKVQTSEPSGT

Chain of ATP-dependent translocase ABCB1 (P08183 whole entry): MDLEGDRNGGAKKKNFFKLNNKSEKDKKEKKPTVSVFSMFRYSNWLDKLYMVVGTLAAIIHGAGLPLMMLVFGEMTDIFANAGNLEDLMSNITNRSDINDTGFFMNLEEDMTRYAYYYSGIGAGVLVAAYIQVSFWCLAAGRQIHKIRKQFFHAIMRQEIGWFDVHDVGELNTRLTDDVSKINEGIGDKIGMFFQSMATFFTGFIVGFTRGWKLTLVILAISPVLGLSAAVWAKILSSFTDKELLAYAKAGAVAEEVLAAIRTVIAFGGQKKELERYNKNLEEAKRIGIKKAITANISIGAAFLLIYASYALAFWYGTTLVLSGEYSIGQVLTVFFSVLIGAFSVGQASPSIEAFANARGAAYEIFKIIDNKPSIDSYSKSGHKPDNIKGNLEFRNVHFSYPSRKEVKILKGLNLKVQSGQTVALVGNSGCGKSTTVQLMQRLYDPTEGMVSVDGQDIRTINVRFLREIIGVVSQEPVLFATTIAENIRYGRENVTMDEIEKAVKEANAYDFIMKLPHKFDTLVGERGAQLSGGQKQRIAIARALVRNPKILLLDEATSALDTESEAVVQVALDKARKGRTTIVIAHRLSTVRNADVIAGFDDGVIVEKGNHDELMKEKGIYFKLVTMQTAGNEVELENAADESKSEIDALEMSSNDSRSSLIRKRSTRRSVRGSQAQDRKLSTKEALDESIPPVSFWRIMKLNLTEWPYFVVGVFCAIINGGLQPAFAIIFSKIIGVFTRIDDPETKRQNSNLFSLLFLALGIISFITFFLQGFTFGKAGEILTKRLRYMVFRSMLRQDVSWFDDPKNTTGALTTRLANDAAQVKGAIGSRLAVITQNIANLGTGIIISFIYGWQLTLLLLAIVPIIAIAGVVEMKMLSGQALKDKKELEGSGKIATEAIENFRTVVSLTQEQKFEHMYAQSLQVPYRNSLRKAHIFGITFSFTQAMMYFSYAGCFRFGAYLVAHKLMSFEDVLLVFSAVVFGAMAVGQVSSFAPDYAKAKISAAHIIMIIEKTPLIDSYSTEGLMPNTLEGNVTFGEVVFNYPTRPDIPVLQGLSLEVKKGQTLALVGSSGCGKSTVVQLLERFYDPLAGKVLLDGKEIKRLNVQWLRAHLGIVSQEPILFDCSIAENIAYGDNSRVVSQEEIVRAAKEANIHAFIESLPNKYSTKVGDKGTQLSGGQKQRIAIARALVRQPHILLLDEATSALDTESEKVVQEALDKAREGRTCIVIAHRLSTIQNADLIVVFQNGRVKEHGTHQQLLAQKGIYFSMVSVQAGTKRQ
Chain of Phosphatidylcholine translocator ABCB4 (P21439 whole entry): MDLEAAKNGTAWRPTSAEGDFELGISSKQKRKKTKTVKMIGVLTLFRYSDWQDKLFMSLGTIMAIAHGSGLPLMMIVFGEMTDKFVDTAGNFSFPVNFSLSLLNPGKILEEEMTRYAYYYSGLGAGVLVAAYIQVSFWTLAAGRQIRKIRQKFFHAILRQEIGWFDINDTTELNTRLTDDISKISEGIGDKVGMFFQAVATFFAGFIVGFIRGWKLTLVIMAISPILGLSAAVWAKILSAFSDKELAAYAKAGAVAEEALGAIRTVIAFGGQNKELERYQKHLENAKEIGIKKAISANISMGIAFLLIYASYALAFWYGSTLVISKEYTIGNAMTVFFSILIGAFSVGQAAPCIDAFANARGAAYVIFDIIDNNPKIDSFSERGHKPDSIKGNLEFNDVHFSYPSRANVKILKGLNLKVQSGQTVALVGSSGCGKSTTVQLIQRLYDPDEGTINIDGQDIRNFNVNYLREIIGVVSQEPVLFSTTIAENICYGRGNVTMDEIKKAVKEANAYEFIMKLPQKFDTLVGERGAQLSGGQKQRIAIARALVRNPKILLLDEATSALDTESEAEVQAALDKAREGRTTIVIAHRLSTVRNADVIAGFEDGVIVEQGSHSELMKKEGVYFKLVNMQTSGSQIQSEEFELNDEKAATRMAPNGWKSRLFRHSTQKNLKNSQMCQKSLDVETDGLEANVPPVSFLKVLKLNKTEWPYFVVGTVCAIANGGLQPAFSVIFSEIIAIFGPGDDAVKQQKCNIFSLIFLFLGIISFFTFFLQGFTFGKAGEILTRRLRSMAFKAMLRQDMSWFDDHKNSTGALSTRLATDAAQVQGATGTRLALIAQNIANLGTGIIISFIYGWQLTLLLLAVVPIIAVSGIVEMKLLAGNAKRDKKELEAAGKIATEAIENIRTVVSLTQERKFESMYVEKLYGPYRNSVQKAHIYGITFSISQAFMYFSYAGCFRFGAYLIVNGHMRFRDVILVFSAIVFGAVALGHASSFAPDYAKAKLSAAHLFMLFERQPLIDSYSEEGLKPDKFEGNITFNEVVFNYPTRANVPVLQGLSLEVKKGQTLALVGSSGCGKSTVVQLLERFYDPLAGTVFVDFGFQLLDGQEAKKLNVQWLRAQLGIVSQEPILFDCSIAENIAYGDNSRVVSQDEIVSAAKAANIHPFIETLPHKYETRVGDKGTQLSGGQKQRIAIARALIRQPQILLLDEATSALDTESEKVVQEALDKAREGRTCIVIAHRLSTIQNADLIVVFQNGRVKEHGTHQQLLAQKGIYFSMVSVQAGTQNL

With `C[C@]12CC[C@H]3[C@@H](CCC4=CC(=O)CC[C@@]43C)[C@@H]1CC[C@@H]2O` [TESTOSTERONE] the Activity [1] was “transporter inhibitor”.
With `CN/C(=N/CCSCc1nc[nH]c1C)NC#N` [CIMETIDINE] the Activity [1] was “transporter inhibitor”.
In the case of `C[C@]12CC[C@@H]3c4ccc(OS(=O)(=O)O)cc4CC[C@H]3[C@@H]1CCC2=O` [ESTRONE SULFURIC ACID], the Activity [2] is reported as “transporter substrate”, the Activity [3] is reported as “transporter substrate” and the Activity [4] is reported as “transporter substrate”. The Activity [5] was “transporter substrate”.
`Cc1cccc(C)c1NC(=O)CC12CCCN1CCC2` [PILSICAINIDE] was tested, and the Activity [1] was “transporter inhibitor”.
For `CC(=O)O[C@H]1C(=O)[C@@]2(C)[C@H]([C@H](OC(=O)c3ccccc3)[C@]3(O)C[C@H](OC(=O)[C@H](O)[C@@H](NC(=O)c4ccccc4)c4ccccc4)C(C)=C1C3(C)C)[C@]1(OC(C)=O)CO[C@@H]1C[C@@H]2O` [PACLITAXEL], the Activity [6] was “transporter substrate” and the Activity [7] was “transporter substrate”.
For `CC[C@]1(O)C[C@@H]2CN(CCc3c([nH]c4ccccc34)[C@@](C(=O)OC)(c3cc4c(cc3OC)N(C)[C@H]3[C@@](O)(C(=O)OC)[C@H](OC(C)=O)[C@]5(CC)C=CCN6CC[C@]43[C@@H]65)C2)C1` [VINBLASTINE], the Activity [6] was “transporter substrate” and the Activity [7] was “transporter substrate”.
`O=C1OC(c2ccc(O)c(S(=O)(=O)[O-])c2)(c2ccc(O)c(S(=O)(=O)[O-])c2)c2c(Br)c(Br)c(Br)c(Br)c21.[Na+].[Na+]` [SULFOBROMOPHTHALEIN SODIUM] was tested, and the Activity [2] was “transporter substrate”, the Activity [8] was “transporter substrate” and the Activity [4] was “transporter substrate”. For the same compound, the Activity [5] was “transporter substrate”.
In the case of `CCCCCCCCCCCCCCSCC(=O)OC[C@H](COP(=O)([O-])OCC[N+](C)(C)C)OC(=O)CSCCCCCCCCCCCCCC` [PHOSPHATIDYLCHOLINE], the Activity [7] is reported as “transporter substrate”.
For `C[C@H]1O[C@@H](O[C@H]2[C@@H](O)C[C@H](O[C@H]3[C@@H](O)C[C@H](O[C@H]4CC[C@@]5(C)[C@H](CC[C@@H]6[C@@H]5C[C@@H](O)[C@]5(C)[C@@H](C7=CC(=O)OC7)CC[C@]65O)C4)O[C@@H]3C)O[C@@H]2C)C[C@H](O)[C@@H]1O` [DIGOXIN], the Activity [6] was “transporter substrate” and the Activity [7] was “transporter substrate”.
OXALIPLATIN was tested, and the Activity [9] was “transporter substrate” and the Activity [10] was “transporter substrate”.
For `O=C(O)COCCN1CCN(C(c2ccccc2)c2ccc(Cl)cc2)CC1` (stereo unspecified) [CETIRIZINE], the Activity [1] was “transporter inhibitor”.
